Measurements taken from US20260083742A1, “HOMOLOGOUS RECOMBINATION REPAIR DEFICIENCY (HRD) AS A PREDICTIVE BIOMARKER FOR TREATING CANCER WITH WEE1 INHIBITORS” (Zeno Management, Inc., priority 2023, published 2026).
pIC50: −log10 of the molar value.

Assays:
[1] = tested on: HCC1937 PARP inhibitor-resistant TNBC xenograft; experiment: HCC1937 TNBC xenograft tumor growth inhibition; format: in vivo, mice
Procedure: Anti-tumor activity of azenosertib monotherapy or in combination with olaparib was evaluated in the HCC1937 model in vivo in mice (FIG. 9), and Table 11 summarizes the groups and treatments. […] Treatment with monotherapy olaparib at 100 mg/kg QD confirmed HCC1937 resistance to the PARP inhibitor.

[2] = tested on: MDA-MB-436 olaparib-resistant model; experiment: MDA-MB-436 olaparib-resistant CDX model in vivo; details: azenosertib 80 mg/kg
Source text: (§1) MDA-MB-436 PARP inhibitor-resistant lines were generated by long-term in vitro treatment with a PARP inhibitor that is olaparib (Ola^R) or niraparib (Nir^R). Resistant cells were confirmed by sequencing to have BRCA1 reversion mutation. The parental MDA-MB-436 cell line remains sensitive to PARP inhibitors as expected (FIG. 5A), while the Nir^R (FIG. 5B) and Ola^R (FIG. 5C) MDA-MB-436 cell lines are no longer sensitive to PARP inhibitors but are sensitive to azenosertib. Azenosertib activity was further confirmed in the PARP inhibitor-resistant MDA-MB-436 CDX model in vivo. […] WEE1 inhibitor or PARP inhibitor treatment in the Parental TNBC animal model (without PARP inhibitor resistance) is shown in FIG. 5D.

[3] = Body weight loss and clinical observations in ovarian PDX study; format: in vivo
Procedure: Relative Body Weight (RBW), individual body weight and mean body weight loss percent were calculated for each measurement by dividing the body weight by the body weight at the start of treatment as described in Example 3.

[4] = tested on: SUM149PT TNBC xenograft (BRCA1 splice isoform Δ11q); experiment: SUM149PT TNBC xenograft tumor growth inhibition; format: in vivo, mice
Procedure: SUM149PT is a TNBC xenograft model harboring a BRCA1 splice isoform (Δ11q) that produces a truncated, partially functional protein which thereby promotes PARP inhibitor resistance. Azenosertib monotherapy and its combination with olaparib or AZD5305 was evaluated in the SUM149PT model in vivo in mice (FIGS. 10A-10B), and Table 12 summarizes the groups and treatments. Single agent treatment with olaparib at 100 mg/kg QD (FIG. 10A) or with the PARP1 selective inhibitor, AZD5305, at 0.1 or 1 mg/kg QD (FIG. 10B) confirmed SUM149PT resistance to PARP inhibitors.

[5] = tested on: MDA-MB-436 Ola^R (BRCA reversion) TNBC cell line; experiment: In vitro activity (IC50) in olaparib-resistant MDA-MB-436; format: cell-based; details: Homo sapiens; MDA-MB-436 Ola^R; read-out: In vitro activity (IC50) Olaparib^R (BRCA reversion)
Procedure: (§2) Cells with BRCA reversion mutations may be considered HRD+due to genome instability (such as TAI, LST, LOH). BRCA reversion mutation is an established mechanism of resistance to both platinum-based chemotherapeutic drugs and PARP inhibitors. In vivo exploration of WEE1 inhibitors (azenosertib, adavosertib) and PARP inhibitors (niraparib, olaparib) was evaluated.
(§3) MDA-MB-436 PARP inhibitor-resistant lines were generated by long-term in vitro treatment with a PARP inhibitor that is olaparib (Ola^R) or niraparib (Nir^R).

[6] = tested on: MDA-MB-436 niraparib-resistant model; experiment: MDA-MB-436 niraparib-resistant CDX model in vivo; details: azenosertib 80 mg/kg
Source text: as §1

[7] = tested on: HGSOC with HRD+ status (BRCA1m); experiment: Human subject with HRD+ platinum-resistant, PARP inhibitor-resistant ovarian cancer treated with azenosertib; format: in vivo; details: one subject
Procedure: A subject with HGSOC selected to have HRD+ status (e.g., BRCA1m) confirmed by qualitative next-generation sequencing based in vitro diagnostic test (FoundationOne®CDx) was administered azenosertib in accordance with an intermittent dosing schedule of at least 400 mg azenosertib once a day for five consecutive days, followed by two off days. The subject received azenosertib for five months. The subject is a person who received 7 prior lines of therapy: (1) carboplatin/paclitaxel/bevacizumab/olaparib (PD); (2) Pembrolizumab (PD); (3) NaPi2b targeting-ADC (XMT-1536) (PD); (4) carboplatin/gemcitabine/bevacizumab (PD); (5) Pegylated doxorubicin (PD); (6) Topotecan (PD); (7) PABP-1 RNP (ATRC-101) (PD).

[8] = tested on: HRD+ cells UWB1289, HCC1937, COV362, HCC1569, HCC1395; experiment: In vitro cell viability (CellTiter-Glo) in a panel of HRD+ cells; format: cell-based; details: HRD+ cells both PARP inhibitor-sensitive and PARP inhibitor-resistant, 5 cell doublings
Procedure: Azenosertib, olaparib and AZD5305 (PARP1-selective inhibitor) were individually tested in vitro in a panel of HRD+ cells as indicated in Table 10. Briefly, cells were seeded in their recommended media at a density of 1,000 cells per well into 96 well plates. After 24 hr, drug treatment was performed and cells were incubated in a 37° C. for 5 cell doublings. Cell viability was measured using CellTiter-Glo (CTG) (Promega) according to the manufacturer's recommendations. Percent viability was calculated as percentage of cell viability relative to DMSO-only vehicle control. Dose-response curves were fit with Graphpad Prism 9 to determine IC50 values.

[9] = tested on: HBCx-9, HBCx-10 and HBCx-17 triple-negative breast cancer (TNBC) PDX models; experiment: Anti-tumor efficacy in TNBC patient-derived xenograft models; format: in vivo, mice; details: HBCx-10 and HBCx-17 (HRD+) vs HBCx-9 (HRD-); azenosertib 60 mg/kg, niraparib 35 mg/kg
Source text: Treatments were initiated 28 days post implantation of the tumor cells. The study period ended 28 days after the start of treatment. [table]

[10] = tested on: MDA-MB-436 Nir^R (BRCA reversion) TNBC cell line; experiment: In vitro activity (IC50) in niraparib-resistant MDA-MB-436; format: cell-based; details: Homo sapiens
Procedure: as §2, §3

[11] = tested on: parental MDA-MB-436 TNBC cell line; experiment: In vitro activity (IC50) in parental MDA-MB-436; format: cell-based; details: Homo sapiens; parental MDA-MB-436; read-out: In vitro activity (IC50) Wild Type
Procedure: as §2, §3

[12] = tested on: patient-derived ovarian xenograft (PDX) models (OVA2-BUR, CTG-0703, CTG-2213); experiment: Anti-tumor efficacy in ovarian PDX models; format: in vivo; details: BRCA1 pathogenic mutant ovarian PDX vs BRCA1 WT / benign mutant; azenosertib 60 mg/kg, niraparib 35 mg/kg
Procedure: The OVA2-BUR model has an HRD negative/BRCA1 WT phenotype. Tumor growth inhibition was also measured using BRCA1^Glu1607Ter (pathogenic) mutant and BRCA1^Pro1099Leu (Benign) mutant PDX models.

[13] = monotherapy azenosertib 60 mg/kg QD 5:2
[14] = monotherapy azenosertib 80 mg/kg QD 5:2
[15] = azenosertib 60 mg/kg and/or niraparib 35 mg/kg p.o., (5 days on, 2 days off) × 4

## C=CCn1c(=O)c2cnc(Nc3ccc(N4CCN(C)CC4)cc3)nc2n1-c1ccc2c(n1)[C@@](O)(CC)CC2 [Azenosertib, azenosertib]
[1]; [13]
  tumor growth inhibition: 80%
[1]; [14]
  tumor growth inhibition: 89%
[2]
  tumor volume compared to the PARP inhibitor: significant reduction in tumor volume
[3]; [15]
  Max. individual BWL: 7.6%
  Max. mean BWL: 0.7%
[3]; azenosertib at 60 mg/kg, niraparib at 35 mg/kg, single agents or in combination
  tolerability (body weight data and clinical observations): well tolerated
[4]; [13]
  TGI: 82%
[4]; [14]
  TGI: 91%
[4]; monotherapy azenosertib 100 mg/kg QD 5:2
  TGI: 101%
[5]
  pIC50: 6.76
[6]
  tumor volume compared to the PARP inhibitor: significant reduction in tumor volume
[7]; after treatment with azenosertib
  target lesion on scan: no longer visualized
[7]; at least 400 mg azenosertib once a day, five days on, two off, five months, 7 prior lines
  cPR (confirmed partial response): −48%
[8]
  tumor cell growth (dose response curves): reduces tumor cell growth
[9]
  tumor growth inhibition in HRD+ models compared to the HRD- model: increased tumor growth inhibition
[10]
  pIC50: 6.73
[11]
  pIC50: 6.55
[12]
  tumor growth inhibition in HRD+ model compared to BRCA1 WT or benign BRCA1 mutant models: increased tumor growth inhibition
